Data reported in ChEMBL document CHEMBL1821574, “Structure-activity relationships of 4-position diamine quinoline methanols as intermittent preventative treatment (IPT) against Plasmodium falciparum” (J Med Chem, 2011).
Values after ≈ are worked out from the molar mass of the structure shown.

Assays:
Plasmodium falciparum [1] = assay: Antimalarial activity against mefloquine-resistant and chloroquine-sensitive Plasmodium falciparum D6; format: functional
Plasmodium falciparum [2] = assay: Antimalarial activity against chloroquine-resistant and mefloquine-sensitive Plasmodium falciparum W2; format: functional
Plasmodium falciparum [3] = assay: Antimalarial activity against chloroquine, mefloquine and pyrimethamine-resistant Plasmodium falciparum TM90C2A; format: functional
Plasmodium falciparum [4] = assay: Antimalarial activity against chloroquine, mefloquine and pyrimethamine-resistant Plasmodium falciparum TM91C235; format: functional
Plasmodium falciparum [5] = assay: Antimalarial activity against chloroquine-resistant and mefloquine-sensitive Plasmodium falciparum W2 assessed as inhibition of [3H]hypoxanthine incorporation by liquid scintillation spectrometry; format: functional
Plasmodium falciparum [6] = assay: Antimalarial activity against chloroquine-sensitive and mefloquine-resistant Plasmodium falciparum D6 assessed as inhibition of [3H]hypoxanthine incorporation by liquid scintillation spectrometry; format: functional
Plasmodium falciparum [7] = assay: Antimalarial activity against chloroquine, mefloquine and pyrimethamine-resistant Plasmodium falciparum TM91C235 assessed as inhibition of [3H]hypoxanthine incorporation by liquid scintillation spectrometry; format: functional
Plasmodium falciparum [8] = assay: Antimalarial activity against chloroquine, mefloquine and pyrimethamine-resistant Plasmodium falciparum TM90C2A assessed as inhibition of [3H]hypoxanthine incorporation by liquid scintillation spectrometry; format: functional
Plasmodium falciparum [9] = assay: Antimalarial activity against chloroquine, mefloquine and pyrimethamine-resistant Plasmodium falciparum TM91C235 by SYBR Green I-based fluorescence assay; format: functional
[10] = Apparent permeability from apical to basolateral side of dog MDCK cells at 5 uM after 2 hrs by LC/MS/MS analysis; format: ADME, cell-based, Canis lupus familiaris
Plasmodium falciparum [11] = assay: Antimalarial activity against chloroquine-sensitive and mefloquine-resistant Plasmodium falciparum D6 by SYBR Green I-based fluorescence assay; format: functional

## O[C@@H](CNCCNC1CC1)c1cc(C(F)(F)F)nc2c(C(F)(F)F)cccc12
Plasmodium falciparum [1]
  IC90: 0.037 µg/mL (≈ 0.0908 µM)
Plasmodium falciparum [2]
  IC90: 0.011 µg/mL (≈ 0.027 µM)
Plasmodium falciparum [3]
  IC90: 0.075 µg/mL (≈ 0.184 µM)
Plasmodium falciparum [4]
  IC90: 0.103 µg/mL (≈ 0.253 µM)

## OC(CNC[C@]12CC[C@H](C1)NC2)c1cc(C(F)(F)F)nc2c(C(F)(F)F)cccc12 (some centres undefined)
Plasmodium falciparum [5]
  IC90: 0.57 µg/mL (≈ 1.32 µM)
Plasmodium falciparum [6]
  IC90: > 0.5 µg/mL
Plasmodium falciparum [7]
  IC90: > 0.5 µg/mL
Plasmodium falciparum [8]
  IC90: > 0.5 µg/mL

## CC(CCN1CCOCC1)NCC(O)c1cc(C(F)(F)F)nc2c(C(F)(F)F)cccc12 (centres undefined)
Plasmodium falciparum [5]
  IC90: 0.011 µg/mL (≈ 0.0236 µM)
Plasmodium falciparum [6]
  IC90: 0.036 µg/mL (≈ 0.0773 µM)
Plasmodium falciparum [7]
  IC90: 0.055 µg/mL (≈ 0.118 µM)
Plasmodium falciparum [8]
  IC90: 0.095 µg/mL (≈ 0.204 µM)

## CCN(CC)CCCC(C)Nc1ccnc2cc(Cl)ccc12 (centres undefined) [CHLOROQUINE]
Plasmodium falciparum [1]
  IC90: 0.0051 µg/mL (≈ 0.0159 µM)
Plasmodium falciparum [2]
  IC90: 0.266 µg/mL (≈ 0.832 µM)
Plasmodium falciparum [3]
  IC90: 0.139 µg/mL (≈ 0.435 µM)
Plasmodium falciparum [4]
  IC90: 0.089 µg/mL (≈ 0.278 µM)

## CNCCN(C)CC(O)c1cc(C(F)(F)F)nc2c(C(F)(F)F)cccc12 (centres undefined)
Plasmodium falciparum [9]
  IC90: 0.755 µg/mL (≈ 1.91 µM)
[10]
  Papp A→B at 2 h, 5 µM: 5.66 ×10⁻⁶ cm/s
Plasmodium falciparum [11]
  IC90: 0.432 µg/mL (≈ 1.09 µM)

## CCCCNCCNCC(O)c1cc(C(F)(F)F)nc2c(C(F)(F)F)cccc12 (centres undefined)
Plasmodium falciparum [9]
  IC90: 0.236 µg/mL (≈ 0.557 µM)
Plasmodium falciparum [5]
  IC90: 0.069 µg/mL (≈ 0.163 µM)
Plasmodium falciparum [6]
  IC90: 0.155 µg/mL (≈ 0.366 µM)
Plasmodium falciparum [7]
  IC90: 0.283 µg/mL (≈ 0.668 µM)
Plasmodium falciparum [8]
  IC90: 0.319 µg/mL (≈ 0.753 µM)
[10]
  Papp A→B at 2 h, 5 µM: 5.9 ×10⁻⁶ cm/s
Plasmodium falciparum [11]
  IC90: 0.128 µg/mL (≈ 0.302 µM)

## OC(CNCCNC1CCCCC1)c1cc(C(F)(F)F)nc2c(C(F)(F)F)cccc12 (centres undefined)
Plasmodium falciparum [9]
  IC90: 0.142 µg/mL (≈ 0.316 µM)
[10]
  Papp A→B at 2 h, 5 µM: 2.7 ×10⁻⁶ cm/s
Plasmodium falciparum [11]
  IC90: 0.122 µg/mL (≈ 0.271 µM)

## CC1CC(C)CN(CCNCC(O)c2cc(C(F)(F)F)nc3c(C(F)(F)F)cccc23)C1 (centres undefined)
Plasmodium falciparum [9]
  IC90: 0.056 µg/mL (≈ 0.121 µM)
Plasmodium falciparum [5]
  IC90: < 0.001 µg/mL
Plasmodium falciparum [6]
  IC90: 0.005 µg/mL (≈ 0.0108 µM)
Plasmodium falciparum [7]
  IC90: 0.01 µg/mL (≈ 0.0216 µM)
Plasmodium falciparum [8]
  IC90: 0.011 µg/mL (≈ 0.0237 µM)
[10]
  Papp A→B at 2 h, 5 µM: 32.7 ×10⁻⁶ cm/s
Plasmodium falciparum [11]
  IC90: 0.01 µg/mL (≈ 0.0216 µM)

## CN(C)CCN(CC(O)c1cc(C(F)(F)F)nc2c(C(F)(F)F)cccc12)CC(O)c1cc(C(F)(F)F)nc2c(C(F)(F)F)cccc12 (centres undefined)
Plasmodium falciparum [9]
  IC90: > 0.5 µg/mL
Plasmodium falciparum [11]
  IC90: > 0.5 µg/mL

## CNCCNCC(O)c1cc(C(F)(F)F)nc2c(C(F)(F)F)cccc12 (centres undefined)
Plasmodium falciparum [5]
  IC90: 0.481 µg/mL (≈ 1.26 µM)
Plasmodium falciparum [6]
  IC90: > 0.5 µg/mL
Plasmodium falciparum [7]
  IC90: > 0.5 µg/mL
Plasmodium falciparum [8]
  IC90: > 0.5 µg/mL

## OC(CNCCN(C1CCCCC1)C1CCCCC1)c1cc(C(F)(F)F)nc2c(C(F)(F)F)cccc12 (centres undefined)
Plasmodium falciparum [9]
  IC90: 0.022 µg/mL (≈ 0.0414 µM)
[10]
  Papp A→B at 2 h, 5 µM: 24.7 ×10⁻⁶ cm/s
Plasmodium falciparum [11]
  IC90: 0.0093 µg/mL (≈ 0.0175 µM)

## O=C1NCCC1N(CCNCC(O)c1cc(C(F)(F)F)nc2c(C(F)(F)F)cccc12)C1CCNC1=O (centres undefined)
Plasmodium falciparum [5]
  IC90: 0.487 µg/mL (≈ 0.913 µM)
Plasmodium falciparum [6]
  IC90: > 0.5 µg/mL
Plasmodium falciparum [7]
  IC90: > 0.5 µg/mL
Plasmodium falciparum [8]
  IC90: > 0.5 µg/mL

## CC(CNC1CCCCC1)NCC(O)c1cc(C(F)(F)F)nc2c(C(F)(F)F)cccc12 (centres undefined)
Plasmodium falciparum [9]
  IC90: 0.082 µg/mL (≈ 0.177 µM)
[10]
  Papp A→B at 2 h, 5 µM: 9.6 ×10⁻⁶ cm/s
Plasmodium falciparum [11]
  IC90: 0.026 µg/mL (≈ 0.0561 µM)

## CNCCN(CC(O)c1cc(C(F)(F)F)nc2c(C(F)(F)F)cccc12)CC(O)c1cc(C(F)(F)F)nc2c(C(F)(F)F)cccc12 (centres undefined)
Plasmodium falciparum [9]
  IC90: 0.03 µg/mL (≈ 0.0436 µM)
[10]
  Papp A→B at 2 h, 5 µM: 0.3 ×10⁻⁶ cm/s
Plasmodium falciparum [11]
  IC90: 0.022 µg/mL (≈ 0.032 µM)

## CN(CCNCC(O)c1cc(C(F)(F)F)nc2c(C(F)(F)F)cccc12)C1CCCC1 (centres undefined)
Plasmodium falciparum [9]
  IC90: 0.109 µg/mL (≈ 0.243 µM)
Plasmodium falciparum [5]
  IC90: 0.011 µg/mL (≈ 0.0245 µM)
Plasmodium falciparum [6]
  IC90: 0.048 µg/mL (≈ 0.107 µM)
Plasmodium falciparum [7]
  IC90: 0.106 µg/mL (≈ 0.236 µM)
Plasmodium falciparum [8]
  IC90: 0.112 µg/mL (≈ 0.249 µM)
[10]
  Papp A→B at 2 h, 5 µM: 17 ×10⁻⁶ cm/s
Plasmodium falciparum [11]
  IC90: 0.035 µg/mL (≈ 0.0779 µM)

## CC(CNC(C)(C)C)NCC(O)c1cc(C(F)(F)F)nc2c(C(F)(F)F)cccc12 (centres undefined)
Plasmodium falciparum [9]
  IC90: 0.041 µg/mL (≈ 0.0937 µM)
[10]
  Papp A→B at 2 h, 5 µM: 13.1 ×10⁻⁶ cm/s
Plasmodium falciparum [11]
  IC90: 0.015 µg/mL (≈ 0.0343 µM)

## CC(C)(CN1CC2CCC1C2)NCC(O)c1cc(C(F)(F)F)nc2c(C(F)(F)F)cccc12 (centres undefined)
Plasmodium falciparum [9]
  IC90: 0.16 µg/mL (≈ 0.337 µM)
[10]
  Papp A→B at 2 h, 5 µM: 25.1 ×10⁻⁶ cm/s
Plasmodium falciparum [11]
  IC90: 0.093 µg/mL (≈ 0.196 µM)

## OC(CNCCN1CC2CCC1C2)c1cc(C(F)(F)F)nc2c(C(F)(F)F)cccc12 (centres undefined)
Plasmodium falciparum [9]
  IC90: 0.972 µg/mL (≈ 2.17 µM)
[10]
  Papp A→B at 2 h, 5 µM: 14.2 ×10⁻⁶ cm/s
Plasmodium falciparum [11]
  IC90: 0.844 µg/mL (≈ 1.89 µM)

## OC(CNCCN1CCCC1)c1cc(C(F)(F)F)nc2c(C(F)(F)F)cccc12 (centres undefined)
Plasmodium falciparum [5]
  IC90: 0.109 µg/mL (≈ 0.259 µM)
Plasmodium falciparum [6]
  IC90: 0.311 µg/mL (≈ 0.738 µM)
Plasmodium falciparum [7]
  IC90: 0.556 µg/mL (≈ 1.32 µM)
Plasmodium falciparum [8]
  IC90: 0.835 µg/mL (≈ 1.98 µM)

## CC(CN1CCCC1)NCC(O)c1cc(C(F)(F)F)nc2c(C(F)(F)F)cccc12 (centres undefined)
Plasmodium falciparum [9]
  IC90: 0.055 µg/mL (≈ 0.126 µM)
Plasmodium falciparum [5]
  IC90: 0.011 µg/mL (≈ 0.0253 µM)
Plasmodium falciparum [6]
  IC90: 0.039 µg/mL (≈ 0.0896 µM)
Plasmodium falciparum [7]
  IC90: 0.079 µg/mL (≈ 0.181 µM)
Plasmodium falciparum [8]
  IC90: 0.071 µg/mL (≈ 0.163 µM)
[10]
  Papp A→B at 2 h, 5 µM: 33.1 ×10⁻⁶ cm/s
Plasmodium falciparum [11]
  IC90: 0.008 µg/mL (≈ 0.0184 µM)

## CC(CNC1CCC1)NCC(O)c1cc(C(F)(F)F)nc2c(C(F)(F)F)cccc12 (centres undefined)
Plasmodium falciparum [9]
  IC90: 0.0093 µg/mL (≈ 0.0214 µM)
[10]
  Papp A→B at 2 h, 5 µM: 10.4 ×10⁻⁶ cm/s
Plasmodium falciparum [11]
  IC90: 0.0014 µg/mL (≈ 0.00322 µM)

## OC(CNCCNc1ccccc1)c1cc(C(F)(F)F)nc2c(C(F)(F)F)cccc12 (centres undefined)
Plasmodium falciparum [9]
  IC90: 0.07 µg/mL (≈ 0.158 µM)
[10]
  Papp A→B at 2 h, 5 µM: 13 ×10⁻⁶ cm/s
Plasmodium falciparum [11]
  IC90: 0.028 µg/mL (≈ 0.0631 µM)

## CC(CNC1CCCC1)NCC(O)c1cc(C(F)(F)F)nc2c(C(F)(F)F)cccc12 (centres undefined)
Plasmodium falciparum [9]
  IC90: 0.124 µg/mL (≈ 0.276 µM)
[10]
  Papp A→B at 2 h, 5 µM: 11.1 ×10⁻⁶ cm/s
Plasmodium falciparum [11]
  IC90: 0.03 µg/mL (≈ 0.0667 µM)

## NCCNCC(O)c1cc(C(F)(F)F)nc2c(C(F)(F)F)cccc12 (centres undefined)
Plasmodium falciparum [9]
  IC90: 1.14 µg/mL (≈ 3.11 µM)
[10]
  Papp A→B at 2 h, 5 µM: 3.1 ×10⁻⁶ cm/s
Plasmodium falciparum [11]
  IC90: 0.988 µg/mL (≈ 2.69 µM)
